Experiment [1] addresses T1, CDK12 (Homo sapiens, UniProt Q9NYV4).
T1 construct: endogenous in cells; host or cells: CAL-120 human breast cancer cells (DSMZ ACC 459)
In words: CDK12 protein level in CAL-120 cells (Protein Simple). Type of experiment: cell-based. The note with it: 18 h, CDK12/HSP90 peak area ratio, read-out: CDK12 protein level in CAL-120 breast ca cells DC50-[mol/l] (median). As to the method:
CAL-120 human breast cancer cells (DSMZ ACC 459) were seeded at 300,000 cells/well in 6-well plates containing 2 mL of growth medium (DMEM, 10% FCS, glutamine) and incubated for 24 h at 37° C. in an humidified incubator. Test compounds were added at various concentrations, control wells received solvent (DMSO), and the plates were incubated for another 18 h at 37° C. Cells were washed 2 times with PBS and lysed in 75 microL lysis buffer (MSD-Puffer (MSD, #R^60TX-2), +1% SDS+PhosSTOP (Roche #04906837001)+ complete mini (Roche #04693159001)) by scraping. The lysates were pushed 2 times through Qiashedders followed by centrifugation at 14,000 rpm for 30-50 sec. The supernatant was stored at −20° C. […] CDK12 and HSP90 (loading control) were detected using anti-human CDK12 antibody (Cell Signaling Technologies (CST) #11793) at 1:25 dilution and anti-human HSP90 antibody (CST #4877) at 1:5,000 dilution. CDK12 and HSP90 peak areas were determined using Protein Simple Compass software. Ratio of CDK12/HSP90 peak areas were calculated for each sample, and DC50 values (degrading concentration to achieve 50% reduction relative to vehicle treated control) were determined by means of a 4 parameter fit.

Experiment [2] deals with MDA-MB-231 human breast cancer cells. In words: Proliferation assay MDA-MB-231 (crystal violet). Type of experiment: cell-based. The conditions noted are these: 96 h, MDA-MB-231 cells, 4 days, read-out: Prolif-MDA MB231 IC50-[mol/l] (median). The procedure:
Human tumour cells were originally obtained from the American Type Culture Collection (ATCC), or from the Deutsche Sammlung von Mikroorganismen und Zellkulturen (DSMZ, German Collection of Microorganisms and Cell Cultures). Cultivated tumour cells (CAL-120, human breast adenocarcinoma cells, DSMZ ACC-459; MDA-MB-231, human breast cancer cells, ATCC HTB-26) were plated at a density of 4,000 cells/well in a 96-well multititer plate in 200 microL of their respective growth medium supplemented 10% fetal calf serum. After 24 hours, the cells of one plate (zero-point plate) were stained with crystal violet (see below), while the medium of the other plates was supplemented with the test substances in various concentrations (0 micromol/L, as well as in the range of 0.01-10 micromol/L; the final concentration of the solvent dimethyl sulfoxide was adjusted to 0.1%) using a Tecan HP D300 Digital Dispenser. The cells were incubated for 4 days in the presence of test substances. Cell proliferation was determined by staining the cells with crystal violet: the cells were fixed by adding 20 microL/measuring point of an 11% glutaric aldehyde solution for 15 minutes at room temperature. After three washing cycles of the fixed cells with water, the plates were dried at room temperature. The cells were stained by adding 100 microL/measuring point of a 0.1% crystal violet solution (pH 3.0). After three washing cycles of the stained cells with water, the plates were dried at room temperature. The dye was dissolved by adding 100 microL/measuring point of a 10% acetic acid solution. The extinction was determined by photometry at a wavelength of 595 nm. The change of cell number, in percent, was calculated by normalization of the measured values to the extinction values of the zero-point plate (=0%) and the extinction of the untreated (0 μM) cells (=100%). The IC50 values (inhibitory concentration at 50% of maximal effect) were determined by means of a 4 parameter fit.

T1 sequence (Q9NYV4 whole entry): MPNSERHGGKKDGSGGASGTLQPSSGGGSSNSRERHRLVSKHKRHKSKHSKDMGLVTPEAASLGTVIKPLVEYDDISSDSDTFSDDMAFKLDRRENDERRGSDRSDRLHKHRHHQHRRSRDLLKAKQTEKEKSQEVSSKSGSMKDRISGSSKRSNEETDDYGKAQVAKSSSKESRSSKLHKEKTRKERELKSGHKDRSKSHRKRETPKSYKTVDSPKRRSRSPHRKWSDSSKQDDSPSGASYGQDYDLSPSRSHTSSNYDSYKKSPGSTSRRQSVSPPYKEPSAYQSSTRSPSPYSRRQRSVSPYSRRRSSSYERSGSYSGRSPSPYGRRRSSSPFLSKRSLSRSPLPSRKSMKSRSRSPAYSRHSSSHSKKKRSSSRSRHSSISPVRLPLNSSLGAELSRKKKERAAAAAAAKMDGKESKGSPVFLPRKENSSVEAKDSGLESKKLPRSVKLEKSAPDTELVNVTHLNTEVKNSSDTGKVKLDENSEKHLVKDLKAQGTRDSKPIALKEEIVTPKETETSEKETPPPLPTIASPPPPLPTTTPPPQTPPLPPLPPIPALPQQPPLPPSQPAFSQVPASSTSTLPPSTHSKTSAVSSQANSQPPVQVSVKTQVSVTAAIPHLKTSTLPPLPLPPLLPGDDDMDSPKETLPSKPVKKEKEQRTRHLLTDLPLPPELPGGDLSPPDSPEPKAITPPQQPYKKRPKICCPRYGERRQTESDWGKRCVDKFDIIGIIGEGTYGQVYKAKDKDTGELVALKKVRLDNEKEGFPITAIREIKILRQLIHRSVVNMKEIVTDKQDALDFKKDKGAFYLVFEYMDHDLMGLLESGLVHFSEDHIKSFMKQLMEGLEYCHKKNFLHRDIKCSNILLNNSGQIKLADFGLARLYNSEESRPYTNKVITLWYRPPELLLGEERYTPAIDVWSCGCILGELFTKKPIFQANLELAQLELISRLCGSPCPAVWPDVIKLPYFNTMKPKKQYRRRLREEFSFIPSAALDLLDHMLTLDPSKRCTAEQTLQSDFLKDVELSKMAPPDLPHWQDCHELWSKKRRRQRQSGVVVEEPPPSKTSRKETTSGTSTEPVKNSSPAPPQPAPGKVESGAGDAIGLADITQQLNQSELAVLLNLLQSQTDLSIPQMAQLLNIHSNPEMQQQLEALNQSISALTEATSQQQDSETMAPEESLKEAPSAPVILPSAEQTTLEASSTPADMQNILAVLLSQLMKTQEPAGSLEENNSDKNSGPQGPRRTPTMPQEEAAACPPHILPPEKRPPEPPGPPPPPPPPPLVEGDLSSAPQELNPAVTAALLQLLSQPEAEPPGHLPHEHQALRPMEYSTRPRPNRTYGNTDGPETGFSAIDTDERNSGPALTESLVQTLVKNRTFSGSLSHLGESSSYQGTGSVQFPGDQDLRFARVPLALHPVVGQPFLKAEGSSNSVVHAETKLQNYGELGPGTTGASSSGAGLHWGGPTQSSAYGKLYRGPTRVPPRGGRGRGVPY
T1 sequence (O75909 whole entry partner): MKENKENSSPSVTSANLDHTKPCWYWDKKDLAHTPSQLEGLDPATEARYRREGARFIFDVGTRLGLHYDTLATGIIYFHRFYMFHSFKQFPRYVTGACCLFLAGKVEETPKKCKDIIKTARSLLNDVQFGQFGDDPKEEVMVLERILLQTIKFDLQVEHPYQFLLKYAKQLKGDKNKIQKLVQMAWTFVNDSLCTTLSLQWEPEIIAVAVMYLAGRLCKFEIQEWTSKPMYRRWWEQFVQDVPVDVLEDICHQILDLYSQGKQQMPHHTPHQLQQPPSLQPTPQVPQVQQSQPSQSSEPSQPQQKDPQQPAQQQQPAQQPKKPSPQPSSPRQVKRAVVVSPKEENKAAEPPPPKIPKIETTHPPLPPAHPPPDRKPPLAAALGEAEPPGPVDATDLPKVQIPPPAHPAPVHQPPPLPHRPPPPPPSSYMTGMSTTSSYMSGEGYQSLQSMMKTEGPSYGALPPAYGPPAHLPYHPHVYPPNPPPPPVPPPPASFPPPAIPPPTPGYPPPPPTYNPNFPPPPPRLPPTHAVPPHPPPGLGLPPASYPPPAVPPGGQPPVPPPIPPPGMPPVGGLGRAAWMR

Turning to `N#Cc1cnc2c(NCc3nc4ccccc4[nH]3)nc(N3CCOCC3)nn12` [Example 2, 4-{[(1H-benzimidazol-2-yl)methyl]amino}-2-(morpholin-4-yl)imidazo[2,1-f][1,2,4]triazine-7-carbonitrile], in experiment [1], the DC50 was 5.81 nM.

In the case of `Brc1cnc2c(NCc3nc4ccccc4[nH]3)nc(N3CCOCC3)nn12` [Example 1, N-[(1H-benzimidazol-2-yl)methyl]-7-bromo-2-(morpholin-4-yl)imidazo[2,1-f][1,2,4]triazin-4-amine], the DC50 in experiment [1] was under 3 nM. For the same compound, the IC50 in experiment [2] is 42 nM.

The record behind these values is patent US20230106032A1, “IMIDAZOTRIAZINES ACTING ON CANCER VIA INHIBITION OF CDK12” (Bayer Aktiengesellschaft, priority 2020, published 2023).
